Data taken from patent US9359616B2, “Ribosomal polynucleotides and related expression systems” (The Scripps Research Institute, priority 2012, dated 2016).

Legend:
wild type 40S subunits = experiment: 35S-Met/Cys pulse labeling of transfected N2a cells cultured with increasing concentrations of pactamycin (wild type ribosomes); format: cell-based, mouse; conditions: 100 ng/ml pactamycin, could be further blocked at higher concentrations, SDS-PAGE of 35S-labeled lysates (FIG. 4d)
From the text: There were no reports of functionally tested examples of nucleotide changes conferring antibiotic resistance in higher eukaryotes. Pactamycin affects translation by binding to rRNA in the E-site of the small subunit and disrupting the positioning of mRNA at this site. The result of pactamycin-binding is a block in […] and the accumulation of di-peptides resulting from aborted initiation events. Analyzed were the effects of mutations in mouse 18S rRNA at four residues, G963, A964, C1065 and C1066 in SEQ ID NO:23. These residues correspond, respectively, to positions 693, 694, 795 and 796 at the E-site of E. coli 16S rRNA which were identified from crystal structures. Unless otherwise noted, the numbering of these sites in mammalian 18S rRNA sequences is based on that in E. coli 16S rRNA. […] Pactamycin resistance was assessed by 35S-Met/Cys pulse labeling of transfected cells in the presence of 100 ng/ml antibiotic. […] Mutated ribosomes were also analyzed for their ability to translate a luciferase mRNA in cells transfected with a luciferase reporter plasmid (pGL4.13), and cultured in the presence of 100 ng/ml pactamycin (FIG. 4b).
The levels of synthetic 18S rRNA for constructs with each mutation were monitored using the hybridization tag and found no substantial differences that could account for the difference in translation between G693A and the other mutations (FIG. 4c). […]

[1] = system: mutated subunits (G693A 18S rRNA); experiment: 35S-Met/Cys pulse labeling of transfected N2a cells cultured with increasing concentrations of pactamycin (G693A mutated ribosomes); format: cell-based, mouse; conditions: even at the highest concentration tested of 6,400 ng/ml pactamycin; N2a cells (FIG. 4d)

SMILES: CC(=O)c1cccc(N[C@H]2[C@H](N)[C@@](NC(=O)N(C)C)([C@H](C)O)[C@@](C)(O)[C@@]2(O)COC(=O)c2c(C)cccc2O)c1 [pactamycin]
- translation from wild type 40S subunits (wild type 40S subunits): substantially blocked
- translation from the mutated subunits [1]: unaffected
